Results as given in patent US11066438B2, “Squalamine solid forms and methods of making the same” (Enterin, Inc., priority 2017, dated 2021).
Entries after “also recorded” stand apart in the source; their conditions may differ. Where two headings read alike, the source gives them in different places.

Experiments:
[1] = cited from earlier work
[2] = cited from earlier work; remark: listed apart in the source
[3] = Form stability: water-acetone and water-ethanol wash, then 40° C. drying, XRPD; assay type: physicochemical; conditions: overnight
Description: Two small portions of Form 2 (˜100 mg each) were prepared in sample vials. The first one was slurried in water briefly followed by filtration and acetone wash. The second one was slurried in water briefly, filtered and washed with ethanol. Both samples were then oven dried at 40° C. overnight and analyzed by XRPD (FIG. 11).

[4] = Form stability: low (27% RH) and high (70% RH) humidity conditioning, XRPD; assay type: physicochemical; conditions: 21° C.
Description: One sample each of Form 1 and Form 2 on XRPD plates (˜10 mg each) were exposed to 21° C. 27% RH and 21° C. 70% RH for one and two days, respectively. The four samples were analyzed by XRPD (FIG. 12 and FIG. 13).

[5] = Form stability: dry ethanol slurry at 30° C., XRPD; assay type: physicochemical; conditions: Slurry in dry ethanol at 30° C., overnight
Description: A small portion of Form 1 (˜50 mg) and a small portion of Form 2 (˜50 mg) were prepared in scintillation vials and equal volumes of sieve dried ethanol was added, the slurries were conditioned overnight in a shaker at 30° C. The wet slurries were analyzed by XRPD (FIG. 14).

[6] = Critical water activity for relative form stability: ethanol slurries at 25° C., XRPD; assay type: physicochemical; conditions: for Water activity levels in ethanol at which the form is the stable form: EtOH slurries, 25° C.; for Final Form by XRPD: ethanol slurry 25° C.
Description: For robust isolation of desired squalamine phosphate crystal form, critical water activity in EtOH has been investigated in terms of the relative stability of ENT-01 Forms 1 and 2. The procedure is detailed below.
Nine samples of each Form 1 and Form 2 separately (˜25 mg each) were prepared in scintillation vials. To each vial ½ mL of ethanol with water activity levels from 0.1 to 0.9 were added and the vials were let to condition in a shaker at 25° C. for 2-3 days. Similarly, six mixed samples of Form 1 and 2 were prepared and slurry conditioned at water activity levels of 0.1 to 0.6 in ethanol at 25° C. The wet cakes of each slurry were analyzed by XRPD.
The slurries post conditioning were analyzed by XRPD. […] The XRPD pattern matches that of Form 2.

HIV = conditions: cited from earlier work
[7] = dose levels 6 to 700 mg/m(2)/day
[8] = patients, 500 mg/m(2)/day, 5-day continuous i.v. infusion

Molecule: CC(C)[C@@H](CC[C@@H](C)[C@H]1CC[C@H]2[C@@H]3[C@H](O)C[C@H]4C[C@@H](NCCCNCCCCN)CC[C@]4(C)[C@H]3CC[C@]12C)OS(=O)(=O)O [squalamine, 3 beta-N-1-(N-[3-(4-aminobutyl)]-1,3-diaminopropane)-7 alpha,24 zeta-dihydroxy-5 alpha-cholestane 24-sulfate]
- dose-limiting toxicity ([1]; 500 mg/m(2)/day): one of seven patients experienced dose-limiting grade 4 hyperbilirubinemia and grade 3 neurosensory changes
- tolerability ([1]; 500 mg/m(2)/day): well tolerated
- dose-limiting toxicity ([1]; 700 mg/m(2)/day): two of three patients developed grade 4 hyperbilirubinemia
- pharmacokinetics versus dose [1, 7]: dose-proportional
- principal dose-limiting toxicity [1, 7]: Hepatotoxicity
- clearance, mean (percentage coefficient of variation) [1, 8]: 2.67 liters/h/m(2)
- half-life, mean (percentage coefficient of variation) [1, 8]: 9.46 h
- steady-state concentrations, mean (percentage coefficient of variation) [1, 8]: 20.08 micro g/ml
- volume of distribution, mean (percentage coefficient of variation) [1, 8]: 36.84 liters/m(2)
- dose-limiting toxicity (grade 3/4 arthralgia, myalgia, neutropenia) ([2]; 400 mg/m(2)/day with paclitaxel and carboplatin): two of three patients
- dose selected as the Phase II dose on the basis of safety and toxicity ([2]; combination regimen with paclitaxel and carboplatin): 300 mg/m(2)/day
- tolerability of the combination ([2]; continuously daily for 5 days, with paclitaxel and carboplatin on day 1): well tolerated

Molecule: squalamine phosphate [Form 2]
- Final Form by XRPD ([3]; Water-acetone wash + 40° C. dry): generates Form 1; also recorded: converted to Form 1
- Final Form by XRPD ([3]; Water-ethanol wash + 40° C. dry): generates Form 1; also recorded: converted to Form 1
- Final Form by XRPD ([4]; 27% RH, overnight (one day)): Form 1 was also obtained; also recorded: converted to Form 1
- Final Form by XRPD ([4]; 70% RH, two nights): remained the same as their respective starting forms; also recorded: Form 2
- Final Form by XRPD [5]: converted to Form 1
- Water activity levels in ethanol at which the form is the stable form [6]: ≥ 0.6 Aw
- Form after slurry conditioning, by XRPD ([6]; slurries in Ethanol at water activity levels of 0.1 to 0.3 at 25° C., three days): converted to Form 1
- Form after slurry conditioning, by XRPD ([6]; slurries in Ethanol at water activity levels of 0.4 to 0.9 at 25° C., three days): stayed the same Form 2

Molecule: squalamine phosphate [Form 1 + Form 2]
- Final Form by XRPD ([6]; Aw 0.000, water volume fraction 0.000, three days): Form 1
- Final Form by XRPD ([6]; Aw 0.099, water volume fraction 0.013, three days): Form 1
- Final Form by XRPD ([6]; Aw 0.205, water volume fraction 0.030, three days): Form 1
- Final Form by XRPD ([6]; Aw 0.298, water volume fraction 0.048, three days): Form 1
- Final Form by XRPD ([6]; Aw 0.398, water volume fraction 0.073, three days): Form 1 + Form 2
- Final Form by XRPD ([6]; Aw 0.502, water volume fraction 0.104, three days): Form 1 + Form 2
- Final Form by XRPD ([6]; Aw 0.700, water volume fraction 0.198, three days): Form 2
- Final Form by XRPD ([6]; Aw 0.802, water volume fraction 0.296, three days): Form 2
- Final Form by XRPD ([6]; Aw 0.900, water volume fraction 0.550, three days): Form 2

Molecule: CC[C@H]1C(=O)Nc2ccc(F)cc2N1C(=O)OC(C)C [GW420867X]
- greater activity than HBY097 (HIV): 25 fold

Molecule: squalamine phosphate [Form 1]
- Final Form by XRPD ([4]; 27% RH, overnight (one day)): remained the same form; also recorded: Form 1
- Final Form by XRPD ([4]; 70% RH, two nights): remained the same as their respective starting forms; also recorded: Form 1
- Final Form by XRPD [5]: Form 1
- Water activity levels in ethanol at which the form is the stable form [6]: ≤ 0.5 Aw
- Form after slurry conditioning, by XRPD ([6]; slurries in Ethanol at water activity levels of 0.1 to 0.6 at 25° C., three days): stayed the same Form
- Form after slurry conditioning, by XRPD ([6]; slurries in Ethanol at water activity levels of 0.7 to 0.9 at 25° C., three days): converted to Form 2

Molecule: squalamine phosphate [Form 1 + 2]
- Final Form by XRPD ([6]; mixed forms, Aw 0.099, water volume fraction 0.013, seven days): Form 1
- Final Form by XRPD ([6]; mixed forms, Aw 0.205, water volume fraction 0.030, seven days): Form 1
- Final Form by XRPD ([6]; mixed forms, Aw 0.298, water volume fraction 0.048, seven days): Form 1
- Final Form by XRPD ([6]; mixed forms, Aw 0.398, water volume fraction 0.073, seven days): Form 1
- Final Form by XRPD ([6]; mixed forms, Aw 0.502, water volume fraction 0.104, seven days): Form 1
- Final Form by XRPD ([6]; mixed forms, Aw 0.605 (0.6), water volume fraction 0.145, seven days): Form 2
- Final Form by XRPD ([6]; mixed forms, Aw 0.605 (0.6), water volume fraction 0.145, seven days, listed as Form 1 and 2): converted to Form 2
- Form after slurry conditioning, by XRPD ([6]; mixed slurries in Ethanol at water activity levels of 0.1 to 0.5 Aw at 25° C., seven days): converted to Form 1

Molecule: C[C@H](Sc1nc(N)cc(Cl)n1)c1cc2ccoc2cn1 [PNU-142721]
- greater activity than its predecessor delavirdine (HIV): 20- to 50 fold

Molecule: Nc1nc(=O)n([C@@H]2CS[C@H](CO)O2)cc1F [COVIRACIL, emtricitabine]
- greater activity in vitro than lamivudine (3TC) (HIV; in vitro): 3-to 10 fold
